Experimental data as given in US20260226068A1, “IMIDAZOTRIAZINE IL-17A MODULATORS AND USES THEREOF” (DICE ALPHA, INC., priority 2023, published 2026).

Columns and labels:
IL-17A/A = target: T1, IL-17A/A (Homo sapiens, UniProt Q16552); test: IL-17A/A HEK-Blue cell assay (SEAP reporter); assay type: cell-based; conditions: HEK-Blue IL-17A reporter cells, IL17A/A 5 ng/mL, 20 hours, SEAP read at A630; read-out: HEK-Blue IL17AA (IC50 for IL-17A/A inhibition)
T1 construct: purchased Genscript Z03228
T1 sequence (Q16552 24-155): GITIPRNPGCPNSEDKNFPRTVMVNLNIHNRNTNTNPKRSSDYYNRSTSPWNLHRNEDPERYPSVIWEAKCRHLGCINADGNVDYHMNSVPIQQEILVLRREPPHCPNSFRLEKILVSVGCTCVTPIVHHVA

IL-17A/F = target: T2, IL-17A/F (Homo sapiens, UniProt Q16552+Q96PD4); test: IL-17A/F HEK-Blue cell assay (SEAP reporter); assay type: cell-based; conditions: HEK-Blue IL-17A reporter cells, IL17A/F 5 ng/mL, 20 hours, SEAP read at A630; read-out: HEK-Blue IL17AF (IC50 for IL-17A/F inhibition)
T2 construct: purchased R&D Systems
T2 sequence (Q16552 24-155): T1 sequence (Q16552 24-155)
T2 sequence (Q96PD4 31-163): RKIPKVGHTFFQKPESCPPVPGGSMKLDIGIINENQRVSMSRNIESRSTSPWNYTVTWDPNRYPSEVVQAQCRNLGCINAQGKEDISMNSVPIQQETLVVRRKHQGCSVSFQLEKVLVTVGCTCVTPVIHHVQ

Row | SMILES | IC50 (IL-17A/A) [nM] | IC50 (IL-17A/F) [nM]
1 | CCn1nccc1C(=O)N[C@H](c1cn2nc(C[C@H]3C[C@@H](C(F)(F)F)CNC3=O)c(CN3CC4CC(C3)C4(F)F)nc2n1)C1CCC(F)(F)CC1 [Compound 348, N-((1S)-(3-((6,6-difluoro-3-azabicyclo[3.1.1]heptan-3-yl)methyl)-2-(((3R,5R)-2-oxo-5-(trifluoromethyl)piperidin-3-yl)methyl)imidazo[1,2-b][1,2,4]triazin-6-yl)(4,4-difluorocyclohexyl)methyl)-1-ethyl-1H-pyrazole-5-carboxamide] | < 100 | 100 to 1000
2 | CCn1nccc1C(=O)N[C@H](c1cn2nc(C[C@H]3C[C@@H](C(F)(F)F)CNC3=O)c(CN3CCOC(C)(C)C3)nc2n1)C1CCC(F)(F)CC1 [Compound 351, N—((S)-(4,4-difluorocyclohexyl)(3-((2,2-dimethylmorpholino)methyl)-2-(((3R,5R)-2-oxo-5-(trifluoromethyl)piperidin-3-yl)methyl)imidazo[1,2-b][1,2,4]triazin-6-yl)methyl)-1-ethyl-1H-pyrazole-5-carboxamide] | < 100 | > 1000
3 | CCn1nccc1C(=O)N[C@H](c1cn2nc(C[C@H]3C[C@@H](C(F)(F)F)CNC3=O)c(CN3CCN(CC(F)(F)F)C(=O)C3)nc2n1)C1CCC(F)(F)CC1 [Compound 352, N—((S)-(4,4-difluorocyclohexyl)(3-((3-oxo-4-(2,2,2-trifluoroethyl)piperazin-1-yl)methyl)-2-(((3R,5R)-2-oxo-5-(trifluoromethyl)piperidin-3-yl)methyl)imidazo[1,2-b][1,2,4]triazin-6-yl)methyl)-1-ethyl-1H-pyrazole-5-carboxamide] | 100 to 1000 | > 1000
4 | CCn1nccc1C(=O)N[C@H](c1cn2nc(C[C@H]3C[C@@H](C(F)(F)F)CNC3=O)c(C3COCCN3)nc2n1)C1CCC(F)(F)CC1 (stereo partly drawn) [Compound 353, N-((1S)-(4,4-difluorocyclohexyl)(3-(morpholin-3-yl)-2-(((3R,5R)-2-oxo-5-(trifluoromethyl)piperidin-3-yl)methyl)imidazo[1,2-b][1,2,4]triazin-6-yl)methyl)-1-ethyl-1H-pyrazole-5-carboxamide] | < 100 | > 1000
5 | CCn1nccc1C(=O)N[C@H](c1cn2nc(C[C@H]3C[C@@H](C(F)(F)F)CNC3=O)c(C3COC4(C3)CN(C)C4)nc2n1)C1CCC(F)(F)CC1 (stereo partly drawn) [Compound 355, N-((1S)-(4,4-difluorocyclohexyl)(3-(2-methyl-5-oxa-2-azaspiro[3.4]octan-7-yl)-2-(((3R,5R)-2-oxo-5-(trifluoromethyl)piperidin-3-yl)methyl)imidazo[1,2-b][1,2,4]triazin-6-yl)methyl)-1-ethyl-1H-pyrazole-5-carboxamide] | 100 to 1000 | > 1000
6 | CCn1nccc1C(=O)N[C@H](c1cn2nc(C[C@H]3C[C@@H](C(F)(F)F)CNC3=O)c(C3CCn4nccc4C3)nc2n1)C1CCC(F)(F)CC1 (stereo partly drawn) [Compound 358, N-((1S)-(4,4-difluorocyclohexyl)(2-(((3R,5R)-2-oxo-5-(trifluoromethyl)piperidin-3-yl)methyl)-3-(4,5,6,7-tetrahydropyrazolo[1,5-a]pyridin-5-yl)imidazo[1,2-b][1,2,4]triazin-6-yl)methyl)-1-ethyl-1H-pyrazole-5-carboxamide] | < 100 | 100 to 1000
7 | CCn1nccc1C(=O)N[C@H](c1cn2nc(C[C@H]3C[C@@H](C(F)(F)F)CNC3=O)c(CCN3CCOCC3)nc2n1)C1CCC(F)(F)CC1 [Compound 359] | < 100 | 100 to 1000
8 | CCn1nncc1C(=O)N[C@H](c1cn2nc(C[C@H]3C[C@@H](C(F)(F)F)CNC3=O)c(C3CCOCC3)nc2n1)C1CCC(F)(F)CC1 [Compound 364, N—((S)-(4,4-difluorocyclohexyl)(2-(((3R,5R)-2-oxo-5-(trifluoromethyl)piperidin-3-yl)methyl)-3-(tetrahydro-2H-pyran-4-yl)imidazo[1,2-b][1,2,4]triazin-6-yl)methyl)-1-ethyl-1H-1,2,3-triazole-5-carboxamide] | < 100 | > 1000
9 | CCn1nccc1C(=O)N[C@H](c1cn2nc(C[C@H]3C[C@@H](C(F)(F)F)CNC3=O)c(N3CCN4CCOC[C@@H]4C3)nc2n1)C1CCC(F)(F)CC1 [Compound 366, N—((S)-(4,4-difluorocyclohexyl)(3-((S)-hexahydropyrazino[2,1-c][1,4]oxazin-8(1H)-yl)-2-(((3R,5R)-2-oxo-5-(trifluoromethyl)piperidin-3-yl)methyl)imidazo[1,2-b][1,2,4]triazin-6-yl)methyl)-1-ethyl-1H-pyrazole-5-carboxamide] | < 100 | < 100

The remaining lines, values ahead:

Row | IC50 (IL-17A/A) [nM] | IC50 (IL-17A/F) [nM] | SMILES
10 | < 100 | > 1000 | CCn1nccc1C(=O)N[C@H](c1cn2nc(C[C@H]3C[C@@H](C(F)(F)F)CNC3=O)c(CN3CCOC(C)C3)nc2n1)C1CCC(F)(F)CC1 (stereo partly drawn) [Compound 349, N-((1S)-(4,4-difluorocyclohexyl)(3-((2-methylmorpholino)methyl)-2-(((3R,5R)-2-oxo-5-(trifluoromethyl)piperidin-3-yl)methyl)imidazo[1,2-b][1,2,4]triazin-6-yl)methyl)-1-ethyl-1H-pyrazole-5-carboxamide]
11 | 100 to 1000 | > 1000 | CCn1nccc1C(=O)N[C@H](c1cn2nc(C[C@H]3C[C@@H](C(F)(F)F)CNC3=O)c(C3CCOC4(C3)CN(C)C4)nc2n1)C1CCC(F)(F)CC1 (stereo partly drawn) [Compound 354, N-((1S)-(4,4-difluorocyclohexyl)(3-(2-methyl-5-oxa-2-azaspiro[3.5]nonan-8-yl)-2-(((3R,5R)-2-oxo-5-(trifluoromethyl)piperidin-3-yl)methyl)imidazo[1,2-b][1,2,4]triazin-6-yl)methyl)-1-ethyl-1H-pyrazole-5-carboxamide]
12 | < 100 | 100 to 1000 | CCn1nccc1C(=O)N[C@H](c1cn2nc(C[C@H]3C[C@@H](C(F)(F)F)CNC3=O)c(CN(C)C3CC3)nc2n1)C1CCC(F)(F)CC1 [Compound 356, N—((S)-(3-((cyclopropyl(methyl)amino)methyl)-2-(((3R,5R)-2-oxo-5-(trifluoromethyl)piperidin-3-yl)methyl)imidazo[1,2-b][1,2,4]triazin-6-yl)(4,4-difluorocyclohexyl)methyl)-1-ethyl-1H-pyrazole-5-carboxamide]
13 | < 100 | 100 to 1000 | CCn1nccc1C(=O)N[C@H](c1cn2nc(C[C@H]3C[C@@H](C(F)(F)F)CNC3=O)c(N3CCN(C)C4(CC4)C3)nc2n1)C1CCC(F)(F)CC1 [Compound 357, N—((S)-(4,4-difluorocyclohexyl)(3-(4-methyl-4,7-diazaspiro[2.5]octan-7-yl)-2-(((3R,5R)-2-oxo-5-(trifluoromethyl)piperidin-3-yl)methyl)imidazo[1,2-b][1,2,4]triazin-6-yl)methyl)-1-ethyl-1H-pyrazole-5-carboxamide]
14 | 100 to 1000 | 100 to 1000 | CCn1nccc1C(=O)N[C@H](c1cn2nc(C[C@H]3C[C@@H](C(F)(F)F)CNC3=O)c(N3CC4CC(C3)N4C)nc2n1)C1CCC(F)(F)CC1 [Compound 360, N-((1S)-(4,4-difluorocyclohexyl)(3-(6-methyl-3,6-diazabicyclo[3.1.1]heptan-3-yl)-2-(((3R,5R)-2-oxo-5-(trifluoromethyl)piperidin-3-yl)methyl)imidazo[1,2-b][1,2,4]triazin-6-yl)methyl)-1-ethyl-1H-pyrazole-5-carboxamide]
15 | < 100 | 100 to 1000 | CCn1nccc1C(=O)N[C@H](c1cn2nc(C[C@H]3C[C@@H](C(F)(F)F)CNC3=O)c(N3CC4CCC(C3)N4C)nc2n1)C1CCC(F)(F)CC1 [Compound 361, N-((1S)-(4,4-difluorocyclohexyl)(3-(8-methyl-3,8-diazabicyclo[3.2.1]octan-3-yl)-2-(((3R,5R)-2-oxo-5-(trifluoromethyl)piperidin-3-yl)methyl)imidazo[1,2-b][1,2,4]triazin-6-yl)methyl)-1-ethyl-1H-pyrazole-5-carboxamide]
16 | 100 to 1000 | > 1000 | CN(C)CCn1nccc1C(=O)N[C@H](c1cn2nc(C[C@H]3C[C@@H](C(F)(F)F)CNC3=O)c(C3CCOCC3)nc2n1)C1CCC(F)(F)CC1 [Compound 362, N—((S)-(4,4-difluorocyclohexyl)(2-(((3R,5R)-2-oxo-5-(trifluoromethyl)piperidin-3-yl)methyl)-3-(tetrahydro-2H-pyran-4-yl)imidazo[1,2-b][1,2,4]triazin-6-yl)methyl)-1-(2-(dimethylamino)ethyl)-1H-pyrazole-5-carboxamide]
17 | < 100 | > 1000 | CCn1ncnc1C(=O)N[C@H](c1cn2nc(C[C@H]3C[C@@H](C(F)(F)F)CNC3=O)c(C3CCOCC3)nc2n1)C1CCC(F)(F)CC1 [Compound 363, N—((S)-(4,4-difluorocyclohexyl)(2-(((3R,5R)-2-oxo-5-(trifluoromethyl)piperidin-3-yl)methyl)-3-(tetrahydro-2H-pyran-4-yl)imidazo[1,2-b][1,2,4]triazin-6-yl)methyl)-1-ethyl-1H-1,2,4-triazole-5-carboxamide]
18 | < 100 | 100 to 1000 | CCn1nccc1C(=O)N[C@H](c1cn2nc(C[C@H]3C[C@@H](C(F)(F)F)CNC3=O)c(N3CCOC(C)(C)C3)nc2n1)C1CCC(F)(F)CC1 [Compound 365, N—((S)-(4,4-difluorocyclohexyl)(3-(2,2-dimethylmorpholino)-2-(((3R,5R)-2-oxo-5-(trifluoromethyl)piperidin-3-yl)methyl)imidazo[1,2-b][1,2,4]triazin-6-yl)methyl)-1-ethyl-1H-pyrazole-5-carboxamide]
